Some results are limits rather than exact numbers.

The source of these data is US11858922B2, “Sulfonylureas and related compounds and use of same” (The University of Queensland, priority 2016, dated 2024).

T1 sequence (Q96P20 whole entry): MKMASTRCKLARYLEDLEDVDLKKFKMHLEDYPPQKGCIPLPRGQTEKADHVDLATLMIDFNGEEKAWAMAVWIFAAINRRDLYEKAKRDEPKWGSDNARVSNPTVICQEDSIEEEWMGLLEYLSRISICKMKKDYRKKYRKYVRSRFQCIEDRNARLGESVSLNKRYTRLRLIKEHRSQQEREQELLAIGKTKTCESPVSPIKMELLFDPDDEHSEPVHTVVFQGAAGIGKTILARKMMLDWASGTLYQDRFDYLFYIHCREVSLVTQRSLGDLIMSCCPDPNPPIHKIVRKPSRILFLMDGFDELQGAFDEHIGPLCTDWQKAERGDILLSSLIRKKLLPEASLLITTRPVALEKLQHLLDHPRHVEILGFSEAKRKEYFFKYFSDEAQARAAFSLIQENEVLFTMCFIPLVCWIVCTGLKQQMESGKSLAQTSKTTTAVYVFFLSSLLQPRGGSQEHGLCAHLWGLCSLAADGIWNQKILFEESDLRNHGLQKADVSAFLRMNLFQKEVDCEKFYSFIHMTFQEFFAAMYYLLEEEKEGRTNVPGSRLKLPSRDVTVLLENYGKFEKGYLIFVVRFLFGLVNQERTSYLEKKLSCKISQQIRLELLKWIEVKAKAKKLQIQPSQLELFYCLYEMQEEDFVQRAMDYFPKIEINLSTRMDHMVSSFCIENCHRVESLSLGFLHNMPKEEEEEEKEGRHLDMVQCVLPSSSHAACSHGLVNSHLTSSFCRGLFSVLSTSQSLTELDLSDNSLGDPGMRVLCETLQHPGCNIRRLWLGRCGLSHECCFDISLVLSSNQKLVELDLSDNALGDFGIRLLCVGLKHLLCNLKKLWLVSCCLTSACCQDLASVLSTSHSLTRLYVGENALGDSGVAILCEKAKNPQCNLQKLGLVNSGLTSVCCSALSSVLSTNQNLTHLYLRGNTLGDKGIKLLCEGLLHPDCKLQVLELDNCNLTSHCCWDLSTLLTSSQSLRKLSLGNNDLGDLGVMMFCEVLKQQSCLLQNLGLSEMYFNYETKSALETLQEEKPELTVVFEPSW

The first data set has as its target T1, NLRP3 inflammasome (Homo sapiens, UniProt Q96P20).
T1 construct: endogenous in cells; host or cells: HMDM (human monocyte-derived macrophages from buffy coat blood)
The data set can be described thus: Inhibition of IL-1β release, cell based assay using HMDM (NLRP3 inflammasome activation assay).
Settings: not given
The protocol:
The following assays can be used to determine inhibitory activity of test compounds on the NLRP3 inflammasome using common stimuli such as adenosine triphosphate, nigericin, LeuLeu-OMe or monosodium urate crystals (MSU).
To generate HMDM (Human Monocyte Derived Macrophages), human monocytes are isolated from buffy coat blood using Ficoll-Plaque Plus (GE Healthcare) and density centrifugation. CD14^+ cell selection is performed using MACS magnetic beads (Miltenyl Biotec). Isolated CD14^+ monocytes are differentiated in culture for 7 days with 10 ng/ml human CSF-1 (Miltenyl Biotec) in Iscove's modified Dulbecco's medium (IMDM) containing L-glutamine supplemented with 10% FBS and 1% penicillin/streptomycin (Life Technologies) as described by Croker et al 2013 Immunol Cell Biol 91:625. Stably transfected ASC-cerulean macrophages as described by Hett et al. (Nat. Chem. Biol., 9, 398-405, 2013) are cultured in DMEM supplemented with 10% FCS and 1% P/S.
HMDM are seeded at 1×10^5/ml. […]
For ELISA and cell death assays cells are seeded in 96 well plates. Supernatants are removed and analysed using ELISA kits according to the manufacturer's instructions (DuoSet® R&D Systems, ReadySetGo!® eBioscience, BD OptEIA™, or Perkin Elmer AlphaLISA®). Cell death is assessed by measurement of LDH release relative to a 100% cell lysis control using the CytoTox96® non-radioactive cytotoxicity assay (Promega).
A word on the IC50: it is the point on the concentration scale where inhibition reaches its midpoint. Low values mean greater potency in that assay, high ones weaker potency in that assay. In turn, `CC(C)n1ccc(S(=O)(=O)NC(=O)Nn2c3ccccc3c3ccccc32)n1` [Example 4, N-((9H-carbazol-9-yl)carbamoyl)-1-isopropyl-1H-pyrazole-3-sulfonamide] registered an IC50 below 10 µM.
For `CN1CCN(S(=O)(=O)NC(=O)Nc2c3c(cc4c2CCC4)CCC3)CC1` [Example 2, N-((1,2,3,5,6,7-hexahydro-s-indacen-4-yl)carbamoyl)-4-methylpiperazine-1-sulfonamide], the 50% inhibitory concentration (IC50) is below 1 µM.

System in the next data set: not given
Assay: not given
As to conditions: mouse; cited from earlier work.
For orientation: half-life means how long it takes for the measured level to halve. As to `CC(C)(O)c1coc(S(=O)(=O)NC(=O)Nc2c3c(cc4c2CCC4)CCC3)c1` [MCC950], the half-life is 3.2 h.

Molecular target in the next data set: not listed separately
The data set can be described thus: Isothermal titration calorimetry (ITC), copper complexation of MCC950. The class given is binding. The settings on record: ITC, CuCl2 titrated into 0.4 mM MCC950Na in water, 25° C. The protocol: Complex formation between the sodium form of MCC950 and copper chloride was tested and detected by using isothermal titration calorimetry (ITC). MCC950 (also known as CRID3) is a sulphonylurea having the formula: […]
An autoITC 200 (GE life sciences) was used to measure the change in heat induced by Cu^2+-MCC950 interactions and data analysed using the MicroCal Origin version 7.0 software package adapted for auto-ITC data analysis.
Copper chloride (5 or 2.5 mM of CuCl2) dissolved in water (miliQ water; Elga) was titrated into a cell containing 0.4 mM MCC950Na also dissolved in water. The titration consisted of 19×2 μL injections at 25° C. As a control EDTA was used, in free acid form or as a sodium di-salt, at a concentration of 0.4 mM. Experiments were replicated three times and results were averaged. Thermograms and binding isotherms were used to determine the enthalpy (ΔH), binding constants (K), stoichiometry (N), and entropy (TΔS) using a single-site binding model. The change in standard Gibbs free energy (ΔG) was calculated using the Gibbs-Helmholz thermodynamic equation: ΔG=−RTInK, where R is the ideal gas constant (1.985 cal mol^−1K^−1) and T is the temperature (298 K).
For orientation: Isothermal titration calorimetry measures the heat released or taken up as one component is titrated into another.
Turning to `CC(C)(O)c1coc(S(=O)(=O)NC(=O)Nc2c3c(cc4c2CCC4)CCC3)c1` [MCC950], the “K (binding constant)” value is reported as 5.69 ± 0.3 10^4 M^−1.

The data set is the same for the next values; noted with them: MCC950 sodium salt.
On to `CC(C)(O)c1coc(S(=O)(=O)NC(=O)Nc2c3c(cc4c2CCC4)CCC3)c1` [MCC950], for which the “binding to Cu^2+ (ITC, FIG. 1)” value was “significant binding”.

System in another data set: not listed separately
Kind of data set: Isothermal titration calorimetry (ITC), Ca^2+ binding. The settings on record: MCC950 sodium salt.
Consider `CC(C)(O)c1coc(S(=O)(=O)NC(=O)Nc2c3c(cc4c2CCC4)CCC3)c1` [MCC950], for which the “binding to Ca^2+ (ITC, FIG. 1)” value was “no binding”.

The target of the next data set is T2, NLRP3 (Homo sapiens, UniProt Q96P20).
T2 construct: Seed THP-1 cells (25,000 cells/well) containing 1.0 μg/ml LPS; host or cells: THP-1 cells
T2 sequence (Q96P20 whole entry): as above
Kind of data set: THP-1 cells pyroptosis assay. The class given is cell-based. The settings on record: LPS 1.0 μg/ml, nigericin 5 μM, resazurin readout. An excerpt:
It is well established that the activation of NLRP3 leads to cell pyroptosis and this feature plays an important part in the manifestation of the clinical disease (Yan-gang Liu et al., Cell Death & Disease, 2017, 8(2), e2579; Alexander Wree et al., Hepatology, 2014, 59(3), 898-910; Alex Baldwin et al., Journal of Medicinal Chemistry, 2016, 59(5), 1691-1710; Ema Ozaki et al., Journal of Inflammation Research, 2015, 8, 15-27; Zhen Xie & Gang Zhao, Neuroimmunology Neuroinflammation, 2014, 1(2), 60-65; Mattia Cocco et al., Journal of Medicinal Chemistry, 2014, 57(24), 10366-10382; T. Satoh et al., Cell Death & Disease, 2013, 4, e644). Therefore, it is anticipated that inhibitors of NLRP3 will block pyroptosis, as well as the release of pro-inflammatory cytokines (e.g. IL-1β) from the cell.
THP-1 cells (ATCC #TIB-202) were grown in RPMI containing L-glutamine (Gibco #11835) supplemented with 1 mM sodium pyruvate (Sigma #S8636) and penicillin (100 units/ml)/streptomycin (0.1 mg/ml) (Sigma #P4333) in 10% Fetal Bovine Serum (FBS) (Sigma #F0804). The cells were routinely passaged and grown to confluency (˜10^6 cells/ml). On the day of the experiment, THP-1 cells were harvested and resuspended into RPMI medium (without FBS). The cells were then counted and viability (>90%) checked by Trypan blue (Sigma #T8154). Appropriate dilutions were made to give a concentration of 625,000 cells/ml. To this diluted cell solution was added LPS (Sigma #L4524) to give a 1 μg/ml Final Assay Concentration (FAC). 40 μl of the final preparation was aliquoted into each well of a 96-well plate. The plate thus prepared was used for compound screening.
The following method step-by-step assay was followed for compound screening. • 1. Seed THP-1 cells (25,000 cells/well) containing 1.0 μg/ml LPS in 40 μl of RPMI medium (without FBS) in 96-well, black walled, clear bottom cell culture plates coated with poly-D-lysine (VWR #734-0317) • 2. Add 5 μl compound (8 points half-log dilution, with 10 μM top dose) or vehicle (DMSO 0.1% FAC) to the appropriate wells • 3. Incubate for 3 hrs at 37° C. in 5% CO2 • 4. Add 5 μl nigericin (Sigma #N7143) (FAC 5 μM) to all wells • 5. Incubate for 1 hr at 37° C. and 5% CO2 • 6. At the end of the incubation period, spin plates at 300×g for 3 mins and remove supernatant • 7. Then add 50 μl of resazurin (Sigma #R7017) (FAC 100 μM resazurin in RPMI medium without FBS) and incubate plates for a further 1-1.5 h at 37° C. and 5% CO2 • 8. Plates were read in an Envision reader at Ex 560 nm and Em 590 nm • 9. IC50 data is fitted to a non-linear regression equation (log inhibitor vs response-variable slope 4-parameters) 96-Well Plate Map
(Alamar Blue is a resazurin reagent that responds to reducing activity.)
`Cc1ccc(OCCNS(=O)(=O)NC(=O)Nc2c3c(cc4c2CCC4)CCC3)cc1` [Example 24] came in with an IC50 below 10 µM.
Still for that read-out and setting: to `O=C(Nc1c2c(cc3c1CCC3)CCC2)NS(=O)(=O)NCCN1CCc2ccccc21` [Example 40] belongs below 10 µM; to `O=C(Nc1c2c(cc3c1CCC3)CCC2)NS(=O)(=O)N1CCc2ccccc21` [Example 28], below 10 µM.
Same read-out and setting: for `CCN(C)C1(CNS(=O)(=O)NC(=O)Nc2c3c(cc4c2CCC4)CCC3)CCCCC1` [Example 12] the value was below 10 µM; for `Cc1nccn1-c1ccc(NS(=O)(=O)NC(=O)Nc2c3c(cc4c2CCC4)CCC3)cc1` [Example 27], below 10 µM; for `CC(=O)c1cc2c(cc1NS(=O)(=O)NC(=O)Nc1c3c(cc4c1CCC4)CCC3)OCO2` [Example 36], below 10 µM.
`O=C(Nc1c2c(cc3c1CCC3)CCC2)NS(=O)(=O)NCc1ccco1` [Example 14] gave an IC50 below 10 µM.
The same measure, in the same setting: to `O=C(Nc1c2c(cc3c1CCC3)CCC2)NS(=O)(=O)NCc1ccc(Cl)cc1F` [Example 6] belongs below 10 µM.
The same measure, in the same setting: for `O=C(Nc1c2c(cc3c1CCC3)CCC2)NS(=O)(=O)NCCOc1ccccc1Cl` [Example 5] the value was below 10 µM; for `CN(Cc1ccc(F)cc1)S(=O)(=O)NC(=O)Nc1c2c(cc3c1CCC3)CCC2` [Example 32], below 10 µM; for `CN(c1ccccc1)S(=O)(=O)NC(=O)Nc1c2c(cc3c1CCC3)CCC2` [Example 31], below 10 µM.
Still for that read-out and setting: for `O=C(Nc1c2c(cc3c1CCC3)CCC2)NS(=O)(=O)Nc1ccc2[nH]ccc2c1` [Example 43, 3-(1,2,3,5,6,7-Hexahydro-s-indacen-4-yl)-1-[(1H-indol-5-yl)sulfamoyl]urea] the value was below 1 µM.
Compound `CN(C)CCN(Cc1ccsc1)S(=O)(=O)NC(=O)Nc1c2c(cc3c1CCC3)CCC2` [Example 18] had an IC50 below 10 µM.
For the compound `O=C(Nc1c2c(cc3c1CCC3)CCC2)NS(=O)(=O)N1CCN(CCc2cccs2)CC1` [Example 13], the concentration for half-maximal inhibition (IC50) is below 10 µM.
The same measure, in the same setting: for `Cc1ccnc(C)c1NS(=O)(=O)NC(=O)Nc1c2c(cc3c1CCC3)CCC2` [Example 39] the value was below 10 µM.
Consider `CCn1c(=O)n(CC)c2cc(NS(=O)(=O)NC(=O)Nc3c4c(cc5c3CCC5)CCC4)c(C)cc21` [Example 34], for which the 50% inhibitory concentration (IC50) is below 10 µM.
As for `Cc1ccccc1OCCNS(=O)(=O)NC(=O)Nc1c2c(cc3c1CCC3)CCC2` [Example 26], the IC50 is below 10 µM.
As to `O=C(Nc1c2c(cc3c1CCC3)CCC2)NS(=O)(=O)N(CCN1CCOCC1)Cc1ccco1` [Example 17], the IC50 was below 50 µM.
On the same count and under the same terms, for `CN(Cc1csc(-c2ccccc2)n1)S(=O)(=O)NC(=O)Nc1c2c(cc3c1CCC3)CCC2` [Example 20] the value was below 10 µM; for `O=C(Nc1c2c(cc3c1CCC3)CCC2)NS(=O)(=O)Nc1cccc2c1CCC2` [Example 37], below 10 µM; for `O=C(Nc1c2c(cc3c1CCC3)CCC2)NS(=O)(=O)NCCCc1ccccc1` [Example 25], below 10 µM.
Still for that read-out and setting: for `CS(=O)(=O)c1cccc(CNS(=O)(=O)NC(=O)Nc2c3c(cc4c2CCC4)CCC3)c1` [Example 7] the value was below 10 µM; for `O=C(Nc1c2c(cc3c1CCC3)CCC2)NS(=O)(=O)NCCc1nc(-c2cccnc2)no1` [Example 21], below 10 µM.
The same measure, in the same setting: for `O=C(Nc1c2c(cc3c1CCC3)CCC2)NS(=O)(=O)NCc1ccncc1` [Example 30] the value was below 50 µM.
Regarding `O=C(Nc1c2c(cc3c1CCC3)CCC2)NS(=O)(=O)NCc1cccs1` [Example 23], the IC50 is below 10 µM.
On the same count and under the same terms, for `COc1cc(C)c(NS(=O)(=O)NC(=O)Nc2c3c(cc4c2CCC4)CCC3)cn1` [Example 35] the value was below 1 µM.
For the compound `O=C(Nc1c2c(cc3c1CCC3)CCC2)NS(=O)(=O)N(Cc1ccccc1)Cc1nccs1` [Example 19], the half-maximal inhibitory concentration (IC50) is below 1 µM.
The same measure, in the same setting: for `O=C(Nc1c2c(cc3c1CCC3)CCC2)NS(=O)(=O)NCCc1nccs1` [Example 15] the value was below 10 µM.
Same read-out and setting: for `CN(Cc1ccncc1)S(=O)(=O)NC(=O)Nc1c2c(cc3c1CCC3)CCC2` [Example 29] the value was below 10 µM; for `O=C(Nc1c2c(cc3c1CCC3)CCC2)NS(=O)(=O)NCc1c(F)cc(F)cc1F` [Example 11], below 10 µM; for `Cc1ccc(NS(=O)(=O)NC(=O)Nc2c3c(cc4c2CCC4)CCC3)cc1C#N` [Example 33], below 10 µM.
The same measure, in the same setting: for `Cn1ncc2ccc(NS(=O)(=O)NC(=O)Nc3c4c(cc5c3CCC5)CCC4)cc21` [Example 42, 1-(1,2,3,5,6,7-Hexahydro-s-indacen-4-yl)-3-[(1-methyl-1H-indazol-6-yl)sulfamoyl]urea] the value was below 1 µM.
